Key:
PDK1 = molecular target: T1, PDK1 (Homo sapiens, UniProt O15530); experiment: PDK1 kinase activity assay (ADP-Glo); assay type: biochemical; details: 0.08, 0.4, 2 μM; 30 min pre-incubation; effect of Rhein-DCA at 2 μM
T1 construct: purchased Promega Biotech Co., Ltd (USA)
T1 sequence (O15530 1-556): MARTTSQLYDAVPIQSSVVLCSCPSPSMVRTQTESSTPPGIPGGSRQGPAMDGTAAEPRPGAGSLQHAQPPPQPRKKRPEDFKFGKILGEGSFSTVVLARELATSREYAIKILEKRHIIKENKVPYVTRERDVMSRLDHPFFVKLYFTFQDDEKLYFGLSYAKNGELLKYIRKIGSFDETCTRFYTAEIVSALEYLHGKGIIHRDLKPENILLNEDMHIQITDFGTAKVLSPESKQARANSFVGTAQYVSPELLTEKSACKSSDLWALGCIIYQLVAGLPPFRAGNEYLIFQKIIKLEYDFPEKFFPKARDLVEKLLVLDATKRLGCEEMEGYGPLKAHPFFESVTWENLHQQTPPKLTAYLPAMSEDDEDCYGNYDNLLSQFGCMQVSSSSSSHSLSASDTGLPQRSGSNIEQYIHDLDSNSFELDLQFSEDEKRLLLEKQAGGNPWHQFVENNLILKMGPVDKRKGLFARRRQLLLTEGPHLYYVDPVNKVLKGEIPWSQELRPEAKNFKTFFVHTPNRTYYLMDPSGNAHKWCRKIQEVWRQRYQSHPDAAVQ
Experimental: The elevated glycolytic metabolism in cancer cells would be blocked when the activity of the gate enzyme PDH was resumed through inhibiting overexpression of PDK1, followed by a decrease in lactate and energy production (Figure 2A). ADP-Glo^TM Kinase assay was initially employed to investigate the potential of Rhein-DCA conjugate to suppress PDK1 activity in vitro. PDK1 were separately incubated with rhein, DCA, and Rhein-DCA conjugate for 30 min for better binding, then the enzymatic substrate was added to the mixture to initiate the reaction. Finally, the luminescent signal representing PDK1 activity was recorded once the detection procedures were completed. More detailed experimental information was presented in the supporting information.
The inhibitory effect of PDK1 kinase was evaluated with the […] kinase assay. Firstly, PDK1 enzyme, PDK tide, ATP, and indicated drugs (dissolved in DMSO) were dissolved in kinase buffer. Then, 5 μL of compounds (rhein, DCA and Rhein-DCA) with diverse concentrations and 10 μL of PDK1 enzyme were dispensed to the 96-well plate and incubated for 30 min at room temperature. Next, 10 μL of PDK tide/ATP mixture was added and incubated at room temperature for 60 min. Finally, to halt the reaction and deplete the remaining ATP, 25 μL of ADP-Glo™ reagent was added to each well and incubated at room temperature for 40 min. 50 μL of kinase detection reagent was added and incubated at room temperature for another 30 min. Ultimately, the luminescence signal was recorded by multi-mode microplate reader (Integration time: 1 s). The concentrations of reagents employed in this assay were as follows: […]

4T1 cells [1] = experiment: Mitochondrial membrane potential assay, JC-1; assay type: cell-based, Mouse; details: 6.25 μM, 24 h; for JC-1 green/red fluorescence (Δψm), in words: vs control
Source text: On the other hand, rhein could also disturb mitochondria, the camp of OXPHOS, to further prevent cancer cells from obtaining ATP by inducing pathological opening of mPTP [30]. We first detected mPTP on 4T1 cancer cells treated with indicated drugs according to the mPTP assay kit. The green fluorescence of Calcein AM in mitochondria would vanish when the quencher entered mitochondria through the opened mPTP channel. […] The sustained opening of mPTP along with the loss of Δψm. Thus, we further examined the Δψm of 4T1 cancer cells with JC-1 fluorescence dyes and tetramethylrhodamine, ethyl ester (TMRE) probe. The JC-1 dyes underwent a transition from aggregated red fluorescence to monomeric green fluorescence with mitochondrial depolarization in cells, and the increase of green/red fluorescence intensity ratio of JC-1 dyes indicated mitochondrial depolarization.
(§1) TMRE is a lipophilic cationic fluorescent probe (Ex = 550 nm, Em = 575 nm). The accumulation of TMRE within the mitochondria would reduce with the mitochondrial depolarization, resulting in a decrease in fluorescence intensity. […] The integrity of mitochondria is significant for mitochondrial bioenergy production. Given the influence of ETC, NADH dehydrogenase, ATP synthase and the decrease of Δψm, we speculated that the ATP production from OXPHOS would be hindered by Rhein-DCA conjugate. Mitochondrial bioenergetic processes of 4T1 cells was measured by oxygen consumption rate (OCR) to reflect the capability of OXPHOS.
JC-1: The Δψm was performed using the JC-1 assay with flow cytometry and confocal microscope. 4T1 cells were separately seeded into 6-well plates and confocal dishes at a density of 10 × 10^4 cells per well and cultured at 37 °C for 24 h. Cells were cultured with PBS, rhein (6.25 μM), DCA (6.25 μM), R + D (6.25 μM + 6.25 μM) and Rhein-DCA (6.25 μM) for another 24 h. […] Samples were then immediately detected by flow cytometry and imaged with confocal microscope.

4T1 cells [2] = experiment: Oxygen consumption rate (Seahorse); assay type: cell-based, Mouse; details: 6.25 μM, 24 h
Source text: as §1
The mitochondrial bioenergetics of 4T1 cells was investigated by Seahorse Extracellular Flux analyser. 4T1 cells were seeded in 24-well plates (Seahorse Bioscience) at a density of 2 × 10^4 cells per well and incubated for 24 h at 37 °C in 5% CO2 atmosphere. The cells were treated with indicated drugs at a concentration of 6.25 μM for 24 h. At the same time, XF sensor cartridges were hydrated overnight in a CO2-free environment. The cells were cultured in the incubator for 1 h at 37 °C without CO2 after washed with Seahorse XF assay medium. Three baseline measurements of OCR were detected with Seahorse XFe24 analyzer when the oligomycin (1.0 μM, ATP synthase complex inhibitor), FCCP (1.0 μM, ATP synthesis uncoupler […]) and the mixture of antimycin-A (1.0 μM, inhibitor of complex III) and rotenone (1.0 μM, inhibitor that prevents the transfer of electrons from the Fe-S center in complex I to ubiquinone) were sequentially injected for the detection of the oxygen consumption rate.

SMILES	PDK1 activity (luminescent signal) (PDK1)	JC-1 green/red fluorescence (Δψm), in words (4T1 cells [1])	effect on OCR / cellular OXPHOS (basal respiration, ATP production, maximal respiration) (4T1 cells [2])	JC-1 green/red ratio relative to control group (4T1 cells [1])
O=C(O)C(Cl)Cl [DCA, Dichloroacetate]	did not exhibit obvious differences	did not affect	minor effect	–
O=C(O)c1cc(O)c2c(c1)C(=O)c1cccc(O)c1C2=O [Rhein, 4,5-dihydroxyanthraquinone-2-carboxylic acid]	almost negligible	relatively increased green/red ratio	moderate effects	–
O=C(OCCOC(=O)C(Cl)Cl)c1cc(O)c2c(c1)C(=O)c1cccc(O)c1C2=O [Rhein-DCA]	dramatically decreased	–	complete disruption	about 7 fold

Source: article PMC12036875, “Mitochondria-targeting natural product rhein conjugated with dichloroacetate as the dual inhibitor of glycolysis and oxidative phosphorylation to off energize cancer cells and induce ROS storm” (Theranostics, 2025)
